Source: patent publication US12404285B2, “KRAS G12D proteolysis targeting chimeras” (PAQ Therapeutics Inc., priority 2022, dated 2025)

Molecular target: T1, KRAS in AGS cells (KRAS G12D mutant cell line) or LS180 cells (KRAS G12D mutant cell line) (Homo sapiens, UniProt P01116, G12D)
T1 construct: CRL-187 (LS180) (so in the source); host or cells: AGS or LS180 cells
Assay: KRAS Western Blot (WB) assay
Type: cell-based
Settings: KRAS degradation, 24 hours incubation, normalized to β-actin
Description: Day 1. Seeded AGS cells (KRAS G12D mutant cell line, ATCC, CRL-1739) or LS180 cells (KRAS G12D mutant cell line, ATCC, CRL-187) into 6-well plates (cell density: 3×10^5 cells/well/2 ml medium) in Ham's F-12 medium (Invitrogen, 11765-054) or Eagle's Minimum Essential Medium (ATCC, 30-2003) and incubated overnight at 37° C. and 5% CO2.
Day 2. Aspirated 1 ml medium from each well and added 1 ml medium containing DMSO or test compound into the well to achieve the desired final concentration. Mixed well by gentle shaking and incubated for 24 hours.
Day 3. Aspirated media from plates; washed cells with 2 ml 4° C. PBS (Solarbio, P1020-500) and aspirated the PBS. Then added 100 μl 4° C. […] lysis buffer (Boston BioProducts BP-115D) with protease and phosphatase inhibitors at vendor recommended concentrations (Roche 05892791001 and 04906837001) into each well to lyse the cells, and incubated for 20 minutes at 4° C. Cell lysate was collected into 1.5 ml Eppendorf tube, and the lysate was sonicated at 4° C. for 2 minutes (5 second pulse at 30% power with 10 second intermissions). The lysate was centrifuged at 12,000 rpm for 15 minutes at 4° C. The supernatant was transferred to a fresh Eppendorf tube, and protein concentration was quantified using a BCA kit (Solarbio, PC0020-500). Mixed the cell lysate and 5×NuPAGE SDS Loading Buffer (Beyotime, P0015L), and heated at 95° C. for 10 minutes in a heat block. Prepared samples were stored at −80° C. until SDS-PAGE procedure.
Day 4. Loaded 15 μg protein from each sample onto NuPAGE® Novex 4-12% Bis-Tris Midi Gel, 26 W (Invitrogen, WG1403BOX) and ran the gel at 120V for 1.5 hours in 1×NuPAGE® MOPS SDS Running Buffer (Novex, NP0001). Electrotransferred to nitrocellulose membrane using dry transfer method (iBlot 2 Transfer Stacks, nitrocellulose, IB23001) with a program consisting of 20V for 1 minute, 23V for 4 minutes and 25V for 2 minutes. Blocked the membrane with 5% BSA (Solarbio, A8020) in 1×TBST (CST, 9997S) for 1 hour at room temperature. Incubated with KRAS antibody (LSBio, LS-C175665, clone 2C1) at 1:1000 dilution and β-actin antibody at 1:1000 dilution (CST, 4970S) in TBST containing 1% BSA (Solarbio, A8020) at 4° C. overnight.
Day 5. Washed nitrocellulose membrane three times with 1×TBST for 10 minutes each at room temperature. Incubated with fluorescently labeled secondary antibodies at 1:5000 dilution in TBST containing 1% BSA (anti-rabbit IgG, Licor, 926-32211; anti-mouse IgG, LI-COR, 926-68070) for 1 hour at room temperature. Washed membrane three times with TBST, 10 minutes each. Scanned the membrane on LiCOR scanner for fluorescent signal(s) and quantified KRAS bands and β-actin bands for normalization.
The data are reported in Table 2, wherein “A” indicates a DC50 of less than 1 μM; “B” indicates a DC50 of greater than or equal to 1 μM and less than 10 μM; and “C” indicates a DC50 of greater than or equal to 10 μM.

T1 sequence (P01116 1-188 isoform P01116-2 G12D): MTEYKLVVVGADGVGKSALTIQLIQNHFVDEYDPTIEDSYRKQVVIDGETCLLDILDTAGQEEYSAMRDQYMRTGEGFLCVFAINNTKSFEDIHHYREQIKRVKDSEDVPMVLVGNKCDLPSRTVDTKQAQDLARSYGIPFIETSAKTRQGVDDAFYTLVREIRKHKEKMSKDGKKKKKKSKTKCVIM

| SMILES | DC50 |
| --- | --- |
| C#Cc1c(F)ccc2cc(O)cc(-c3ncc4c(N5CC6CCC(C5)N6)nc(OC[C@@]56CCCN5[C@H](COC(=O)NCCCCCCCCCc5cccc7c5n(C)c(=O)n7C5CCC(=O)NC5=O)CC6)nc4c3F)c12 (stereo partly shown) [Compound 012] | A (DC50 less than 1 μM) |
| C#Cc1c(F)ccc2cc(O)cc(-c3ncc4c(N5CC6CCC(C5)N6)nc(OC[C@@]56CCCN5[C@H](COC(=O)NCCCCCCCCCCNc5ccc7c(c5)C(=O)N(C5CCC(=O)NC5=O)C7=O)CC6)nc4c3F)c12 (stereo partly drawn) [Compound 015, [(3S,8S)-8-[[4-(3,8-diazabicyclo[3.2.1]octan-3-yl)-7-(8-ethynyl-7-fluoro-3-hydroxy-1-naphthyl)-8-fluoro-pyrido[4,3-d]pyrimidin-2-yl]oxymethyl]-1,2,3,5,6,7-hexahydropyrrolizin-3-yl]methyl N-[10-[[2-(2,6-dioxo-3-piperidyl)-1,3-dioxo-isoindolin-5-yl]amino]decyl]carbamate] | A (DC50 less than 1 μM) |
| C#Cc1c(F)ccc2cc(O)cc(-c3ncc4c(N5CC6CCC(C5)N6)nc(OC[C@@]56CCCN5[C@H](COC(=O)NCCCCCCNc5ccc7c(c5)C(=O)N(C5CCC(=O)NC5=O)C7=O)CC6)nc4c3F)c12 (stereo partly drawn) [Compound 017, [(3S,8S)-8-[[4-(3,8-diazabicyclo[3.2.1]octan-3-yl)-7-(8-ethynyl-7-fluoro-3-hydroxy-1-naphthyl)-8-fluoro-pyrido[4,3-d]pyrimidin-2-yl]oxymethyl]-1,2,3,5,6,7-hexahydropyrrolizin-3-yl]methyl N-[6-[[2-(2,6-dioxo-3-piperidyl)-1,3-dioxo-isoindolin-5-yl]amino]hexyl]carbamate] | B (DC50 greater than or equal to 1 μM and less than 10 μM) |
| C#Cc1c(F)ccc2cc(O)cc(-c3ncc4c(N5CC6CCC(C5)N6)nc(OC[C@@]56CCCN5[C@H](COC(=O)NCCCCCCCCNc5cccc7c5C(=O)N(C5CCC(=O)NC5=O)C7=O)CC6)nc4c3F)c12 (stereo partly shown) [Compound 018] | B (DC50 greater than or equal to 1 μM and less than 10 μM) |
| C#Cc1c(F)ccc2cc(O)cc(-c3ncc4c(N5CC6CCC(C5)N6)nc(OC[C@@]56CCCN5[C@H](COC(=O)NCCCNc5cccc7c5C(=O)N(C5CCC(=O)NC5=O)C7=O)CC6)nc4c3F)c12 (stereo partly drawn) [Compound 020, [(3S,8S)-8-[[4-(3,8-diazabicyclo[3.2.1]octan-3-yl)-7-(8-ethynyl-7-fluoro-3-hydroxy-1-naphthyl)-8-fluoro-pyrido[4,3-d]pyrimidin-2-yl]oxymethyl]-1,2,3,5,6,7-hexahydropyrrolizin-3-yl]methylN-[3-[[2-(2,6-dioxo-3-piperidyl)-1,3-dioxo-isoindolin-4-yl]amino]propyl]carbamate] | C (DC50 greater than or equal to 10 μM) |
| C#Cc1c(F)ccc2cc(O)cc(-c3ncc4c(N5CC6CCC(C5)N6)nc(OC[C@@]56CCCN5[C@H](COC(=O)NCCCCCCNc5cccc7c5C(=O)N(C5CCC(=O)NC5=O)C7=O)CC6)nc4c3F)c12 (stereo partly drawn) [Compound 021, [(3S,8S)-8-[[4-(3,8-diazabicyclo[3.2.1]octan-3-yl)-7-(8-ethynyl-7-fluoro-3-hydroxy-1-naphthyl)-8-fluoro-pyrido[4,3-d]pyrimidin-2-yl]oxymethyl]-1,2,3,5,6,7-hexahydropyrrolizin-3-yl]methylN-[6-[[2-(2,6-dioxo-3-piperidyl)-1,3-dioxo-isoindolin-4-yl]amino]hexyl]carbamate] | B (DC50 greater than or equal to 1 μM and less than 10 μM) |
| C#Cc1c(F)ccc2cc(O)cc(-c3ncc4c(N5CC6CCC(C5)N6)nc(OC[C@]56CCCN5[C@@H](COC(=O)NCCCCCCNc5cccc7c5C(=O)N(C5CCC(=O)NC5=O)C7=O)CC6)nc4c3F)c12 (stereo partly drawn) [Compound 022, [(3R,8R)-8-[[4-(3,8-diazabicyclo[3.2.1]octan-3-yl)-7-(8-ethynyl-7-fluoro-3-hydroxy-1-naphthyl)-8-fluoro-pyrido[4,3-d]pyrimidin-2-yl]oxymethyl]-1,2,3,5,6,7-hexahydropyrrolizin-3-yl]methyl N-[6-[[2-(2,6-dioxo-3-piperidyl)-1,3-dioxo-isoindolin-4-yl]amino]hexyl]carbamate] | C (DC50 greater than or equal to 10 μM) |

Continued, values first:

| DC50 | SMILES |
| --- | --- |
| A (DC50 less than 1 μM) | C#Cc1c(F)ccc2cc(O)cc(-c3ncc4c(N5CC6CCC(C5)N6)nc(OC[C@@]56CCCN5[C@H](COC(=O)NCCCCCCCCCCCc5cccc7c5n(C)c(=O)n7C5CCC(=O)NC5=O)CC6)nc4c3F)c12 (stereo partly drawn) [Compound 011, [(3S,8S)-8-[[4-(3,8-diazabicyclo[3.2.1]octan-3-yl)-7-(8-ethynyl-7-fluoro-3-hydroxy-1-naphthyl)-8-fluoro-pyrido[4,3-d]pyrimidin-2-yl]oxymethyl]-1,2,3,5,6,7-hexahydropyrrolizin-3-yl]methylN-[11-[1-(2,6-dioxo-3-piperidyl)-3-methyl-2-oxo-benzimidazol-4-yl]undecyl]carbamate] |
| A (DC50 less than 1 μM) | C#Cc1c(F)ccc2cc(O)cc(-c3ncc4c(N5C[C@H]6CC[C@@H](C5)N6)nc(OC[C@@]56CCCN5[C@H](COC(=O)NCCCCCCCCCCc5ccc7c(c5)n(C)c(=O)n7C5CCC(=O)NC5=O)CC6)nc4c3F)c12 (stereo partly drawn) [Compound 013, ((3S,7aS)-7a-(((4-((1R,5S)-3,8-diazabicyclo[3.2.1]octan-3-yl)-7-(8-ethynyl-7-fluoro-3-hydroxynaphthalen-1-yl)-8-fluoropyrido[4,3-d]pyrimidin-2-yl)oxy)methyl)hexahydro-1H-pyrrolizin-3-yl)methyl (10-(1-(2,6-dioxopiperidin-3-yl)-3-methyl-2-oxo-2,3-dihydro-1H-benzo[d]imidazol-5-yl)decyl) carbamate] |
| A (DC50 less than 1 μM) | C#Cc1c(F)ccc2cc(O)cc(-c3ncc4c(N5CC6CCC(C5)N6)nc(OC[C@@]56CCCN5[C@H](COC(=O)NCCCCCCCCCCc5cccc7c5n(C)c(=O)n7C5CCC(=O)NC5=O)CC6)nc4c3F)c12 (stereo partly drawn) [Compound 014, [(3S,8S)-8-[[4-(3,8-diazabicyclo[3.2.1]octan-3-yl)-7-(8-ethynyl-7-fluoro-3-hydroxy-1-naphthyl)-8-fluoro-pyrido[4,3-d]pyrimidin-2-yl]oxymethyl]-1,2,3,5,6,7-hexahydropyrrolizin-3-yl]methyl N-[10-[1-(2,6-dioxo-3-piperidyl)-3-methyl-2-oxo-benzimidazol-4-yl]decyl]carbamate] |
| A (DC50 less than 1 μM) | C#Cc1c(F)ccc2cc(O)cc(-c3ncc4c(N5CC6CCC(C5)N6)nc(OC[C@@]56CCCN5[C@H](COC(=O)NCCCCCCCCCNc5cccc7c5C(=O)N(C5CCC(=O)NC5=O)C7=O)CC6)nc4c3F)c12 (stereo partly drawn) [Compound 016, ((3S,7aS)-7a-(((4-(3,8-diazabicyclo[3.2.1]octan-3-yl)-7-(8-ethynyl-7-fluoro-3-hydroxynaphthalen-1-yl)-8-fluoropyrido[4,3-d]pyrimidin-2-yl)oxy)methyl)hexahydro-1H-pyrrolizin-3-yl)methyl (9-((2-(2,6-dioxopiperidin-3-yl)-1,3-dioxoisoindolin-4-yl)amino)nonyl)carbamate] |
| C (DC50 greater than or equal to 10 μM) | C#Cc1c(F)ccc2cc(O)cc(-c3ncc4c(N5CC6CCC(C5)N6)nc(OC[C@@]56CCCN5[C@H](COC(=O)NCCCCNc5cccc7c5C(=O)N(C5CCC(=O)NC5=O)C7=O)CC6)nc4c3F)c12 (stereo partly drawn) [Compound 019, [(3S,8S)-8-[[4-(3,8-diazabicyclo[3.2.1]octan-3-yl)-7-(8-ethynyl-7-fluoro-3-hydroxy-1-naphthyl)-8-fluoro-pyrido[4,3-d]pyrimidin-2-yl]oxymethyl]-1,2,3,5,6,7-hexahydropyrrolizin-3-yl]methyl-N-[4-[[2-(2,6-dioxo-3-piperidyl)-1,3-dioxo-isoindolin-4-yl]amino]butyl]carbamate] |
| C (DC50 greater than or equal to 10 μM) | C#Cc1c(F)ccc2cc(O)cc(-c3ncc4c(N5CC6CCC(C5)N6)nc(OC[C@]56CCCN5[C@@H](COC(=O)NCCOCCOCCNc5cccc7c5C(=O)N(C5CCC(=O)NC5=O)C7=O)CC6)nc4c3F)c12 (stereo partly shown) [Compound 025] |
